Measurements as given in PMC7316778 (Nature Communications, 2020).
Several values for one entry are separate records, joined by “and”; a condition that tells them apart may be missing. Equal entries are not always repeated. Where two headings read alike, the source gives them in different places.

What was measured:
WT HL-60 neutrophils = assay: Phagocytosis assay with GFP-expressing E. coli; assay type: cell-based, human; conditions: Figure 7e, replicates, listed as WEL028
Procedure: (§1) HL-60 cells were differentiated to neutrophils as described above. Cells were counted and centrifuged (200g, 5 min), followed by resuspension in growth medium without antibiotics. Cells were incubated with vehicle or inhibitor (from 1000x concentrated stocks in DMSO) for 1 h at 37 °C prior to infection (1×10^6 cells in 900 µL in 12-well plate). Meanwhile, E. coli B834(DE3) constitutively expressing GFP^A206K were grown in LB medium to an OD600 of 0.4–1.0, after which bacteria were centrifuged (2000g, 5 min), washed and resuspended in PBS to appropriate density. Neutrophils were infected by addition of bacteria at multiplicity of infection (MOI) of 30 unless stated otherwise. Cells were then incubated for 1 h at 37 °C unless stated otherwise, after which cells were resuspended and transferred to Eppendorf tubes, washed in FACS buffer (1 mL, 500g, 3 min) and fixed in 1% PFA in PBS (15 min, 4 °C, in the dark). Samples were further processed as described above.
(§2) Events (generally 20,000 per condition) were gated by forward and side scatter (cells), side scatter area (singlets) and the percentage of GFP-positive cells and GFP mean fluorescence intensity (MFI) were determined based on background fluorescence for non-infected cells. The GREEN-B channel (525/30 filter) was used to detect GFP.

[1] = test system: FES^S700C HL-60 neutrophils; assay: Phagocytosis assay with GFP-expressing E. coli; assay type: cell-based, human; conditions: for Phagocytic index / GFP-positive cells (%) / Mean GFP intensity (RFU): listed as WEL028; for GFP-positive cells (%): Sup. Fig. 15a; for Mean GFP intensity (RFU): Sup. Fig. 15b
Procedure: as §1, §2

EPHA3 = target: T1, EPHA3 (Homo sapiens, UniProt P29320); assay: SelectScreen kinase assay
T1 sequence (P29320 21-983): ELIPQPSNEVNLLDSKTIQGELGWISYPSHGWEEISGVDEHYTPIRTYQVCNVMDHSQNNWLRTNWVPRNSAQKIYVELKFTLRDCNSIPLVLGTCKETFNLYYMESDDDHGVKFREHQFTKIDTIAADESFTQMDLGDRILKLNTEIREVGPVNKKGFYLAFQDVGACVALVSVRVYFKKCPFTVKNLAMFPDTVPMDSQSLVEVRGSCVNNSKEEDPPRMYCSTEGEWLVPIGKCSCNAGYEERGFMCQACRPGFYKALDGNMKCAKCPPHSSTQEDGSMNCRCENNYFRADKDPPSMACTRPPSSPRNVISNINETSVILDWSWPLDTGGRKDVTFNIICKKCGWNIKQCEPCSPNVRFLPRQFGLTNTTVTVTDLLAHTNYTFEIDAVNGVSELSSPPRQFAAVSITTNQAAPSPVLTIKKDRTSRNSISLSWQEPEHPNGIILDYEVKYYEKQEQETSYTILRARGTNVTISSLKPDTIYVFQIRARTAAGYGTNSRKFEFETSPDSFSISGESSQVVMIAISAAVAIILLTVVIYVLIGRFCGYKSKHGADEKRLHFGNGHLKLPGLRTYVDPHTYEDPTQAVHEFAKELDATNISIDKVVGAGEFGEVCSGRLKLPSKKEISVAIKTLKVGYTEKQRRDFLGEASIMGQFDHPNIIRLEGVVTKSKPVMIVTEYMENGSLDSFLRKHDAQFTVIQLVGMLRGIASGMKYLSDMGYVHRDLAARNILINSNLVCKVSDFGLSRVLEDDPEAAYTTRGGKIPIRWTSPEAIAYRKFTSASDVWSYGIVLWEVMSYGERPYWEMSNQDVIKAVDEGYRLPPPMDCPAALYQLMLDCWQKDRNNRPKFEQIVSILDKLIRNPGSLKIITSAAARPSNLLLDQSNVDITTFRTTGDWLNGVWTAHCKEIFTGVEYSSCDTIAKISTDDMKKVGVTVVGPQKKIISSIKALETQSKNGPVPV
Procedure: (§3) Selectivity profiling assays were performed by the Invitrogen SelectScreen™ Services. […] The concentration of ATP was selected to be equal to the KM, unless indicated otherwise.

TNK2 (ACK) [2] = assay: SelectScreen kinase assay; conditions: IC50 on that kinase divided by IC50 on FES^S700C
TNK2 (ACK) [3] = target: TNK2 (ACK) (Homo sapiens, UniProt Q07912); assay: SelectScreen kinase assay
WT HL-60 cells = assay: CD11b surface expression, PMA-induced macrophage differentiation; assay type: cell-based, human; conditions: Figure 6d
EGFR (ErbB1) = EGFR (ErbB1) (Homo sapiens, UniProt P00533); assay: SelectScreen kinase assay
Procedure: as §3

CSNK2A1 (CK2 alpha 1) = CSNK2A1 (CK2 alpha 1) (Homo sapiens, UniProt P68400); assay: SelectScreen kinase assay
Procedure: as §3

PI4KB (PI4K beta) = PI4KB (PI4K beta) (Homo sapiens, UniProt Q9UBF8); assay: SelectScreen kinase assay
Procedure: as §3

CDK16 (PCTK1)/cyclin Y = CDK16 (PCTK1)/cyclin Y (Homo sapiens, UniProt Q00536); assay: SelectScreen kinase assay
Procedure: as §3

ROCK1 = ROCK1 (Homo sapiens, UniProt Q13464); assay: SelectScreen kinase assay
Procedure: as §3

[4] = 1 h, 1 μM WEL028, 1 h preincubation

PI4KB (PI4K beta), sequence (Q9UBF8 whole entry): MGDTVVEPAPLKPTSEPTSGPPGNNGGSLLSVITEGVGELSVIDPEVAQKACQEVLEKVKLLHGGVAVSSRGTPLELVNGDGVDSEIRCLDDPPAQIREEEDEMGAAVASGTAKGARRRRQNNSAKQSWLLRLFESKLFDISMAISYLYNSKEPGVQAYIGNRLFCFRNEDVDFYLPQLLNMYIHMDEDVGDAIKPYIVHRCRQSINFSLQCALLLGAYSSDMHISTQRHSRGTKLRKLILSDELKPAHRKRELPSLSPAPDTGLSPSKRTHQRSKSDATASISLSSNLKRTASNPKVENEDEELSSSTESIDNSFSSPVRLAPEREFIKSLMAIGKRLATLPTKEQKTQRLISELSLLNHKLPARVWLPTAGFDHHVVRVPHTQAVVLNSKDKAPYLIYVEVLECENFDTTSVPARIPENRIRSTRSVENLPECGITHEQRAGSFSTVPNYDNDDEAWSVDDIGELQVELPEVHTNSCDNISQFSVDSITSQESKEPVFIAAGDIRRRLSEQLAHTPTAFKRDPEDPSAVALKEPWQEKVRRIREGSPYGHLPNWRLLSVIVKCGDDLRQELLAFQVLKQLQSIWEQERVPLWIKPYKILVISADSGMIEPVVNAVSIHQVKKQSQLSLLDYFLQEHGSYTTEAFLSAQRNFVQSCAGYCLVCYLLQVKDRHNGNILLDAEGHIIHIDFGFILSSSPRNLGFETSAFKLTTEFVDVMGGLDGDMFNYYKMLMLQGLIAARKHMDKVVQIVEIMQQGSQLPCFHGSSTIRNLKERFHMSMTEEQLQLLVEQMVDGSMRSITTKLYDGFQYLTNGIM
CSNK2A1 (CK2 alpha 1), sequence (P68400 whole entry): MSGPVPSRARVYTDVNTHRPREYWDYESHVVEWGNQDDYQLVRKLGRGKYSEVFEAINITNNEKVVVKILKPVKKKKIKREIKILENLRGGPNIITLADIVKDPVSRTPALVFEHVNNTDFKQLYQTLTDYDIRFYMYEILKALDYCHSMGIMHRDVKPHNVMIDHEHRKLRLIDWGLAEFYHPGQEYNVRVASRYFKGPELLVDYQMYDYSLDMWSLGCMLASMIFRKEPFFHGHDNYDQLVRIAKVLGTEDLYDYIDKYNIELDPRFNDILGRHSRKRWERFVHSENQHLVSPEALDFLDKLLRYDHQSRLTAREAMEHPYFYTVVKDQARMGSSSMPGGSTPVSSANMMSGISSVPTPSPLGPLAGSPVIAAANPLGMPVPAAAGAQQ
TNK2 (ACK) (Homo sapiens, UniProt Q07912), sequence (Q07912 whole entry, species assumed): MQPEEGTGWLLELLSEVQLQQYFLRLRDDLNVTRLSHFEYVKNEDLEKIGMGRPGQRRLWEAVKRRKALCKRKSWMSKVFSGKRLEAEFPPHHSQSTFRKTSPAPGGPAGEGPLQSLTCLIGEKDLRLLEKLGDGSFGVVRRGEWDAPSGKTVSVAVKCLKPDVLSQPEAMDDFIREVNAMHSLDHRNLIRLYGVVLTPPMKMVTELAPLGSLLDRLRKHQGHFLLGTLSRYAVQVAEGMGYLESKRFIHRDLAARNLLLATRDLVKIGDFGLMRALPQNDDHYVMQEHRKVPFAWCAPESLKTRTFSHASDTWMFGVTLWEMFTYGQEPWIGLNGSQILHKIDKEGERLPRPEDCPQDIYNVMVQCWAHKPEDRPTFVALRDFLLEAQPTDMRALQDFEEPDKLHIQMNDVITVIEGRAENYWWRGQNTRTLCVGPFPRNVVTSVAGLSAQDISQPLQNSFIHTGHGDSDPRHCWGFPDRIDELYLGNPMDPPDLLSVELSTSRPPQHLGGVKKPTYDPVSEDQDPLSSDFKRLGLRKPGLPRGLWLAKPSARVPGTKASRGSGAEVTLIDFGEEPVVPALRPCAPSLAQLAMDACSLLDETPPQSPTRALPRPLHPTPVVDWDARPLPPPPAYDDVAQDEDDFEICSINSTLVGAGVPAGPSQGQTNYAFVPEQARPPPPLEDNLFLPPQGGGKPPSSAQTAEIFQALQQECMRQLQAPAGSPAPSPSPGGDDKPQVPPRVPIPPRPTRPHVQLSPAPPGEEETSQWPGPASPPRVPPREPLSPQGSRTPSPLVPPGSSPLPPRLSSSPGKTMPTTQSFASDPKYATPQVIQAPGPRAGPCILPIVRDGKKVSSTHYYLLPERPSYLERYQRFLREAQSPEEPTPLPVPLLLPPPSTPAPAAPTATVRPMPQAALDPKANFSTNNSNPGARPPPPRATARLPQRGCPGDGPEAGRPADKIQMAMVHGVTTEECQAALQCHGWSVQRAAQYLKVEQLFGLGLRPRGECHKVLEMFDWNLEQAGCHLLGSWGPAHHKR
EGFR (ErbB1), sequence (P00533 25-1210): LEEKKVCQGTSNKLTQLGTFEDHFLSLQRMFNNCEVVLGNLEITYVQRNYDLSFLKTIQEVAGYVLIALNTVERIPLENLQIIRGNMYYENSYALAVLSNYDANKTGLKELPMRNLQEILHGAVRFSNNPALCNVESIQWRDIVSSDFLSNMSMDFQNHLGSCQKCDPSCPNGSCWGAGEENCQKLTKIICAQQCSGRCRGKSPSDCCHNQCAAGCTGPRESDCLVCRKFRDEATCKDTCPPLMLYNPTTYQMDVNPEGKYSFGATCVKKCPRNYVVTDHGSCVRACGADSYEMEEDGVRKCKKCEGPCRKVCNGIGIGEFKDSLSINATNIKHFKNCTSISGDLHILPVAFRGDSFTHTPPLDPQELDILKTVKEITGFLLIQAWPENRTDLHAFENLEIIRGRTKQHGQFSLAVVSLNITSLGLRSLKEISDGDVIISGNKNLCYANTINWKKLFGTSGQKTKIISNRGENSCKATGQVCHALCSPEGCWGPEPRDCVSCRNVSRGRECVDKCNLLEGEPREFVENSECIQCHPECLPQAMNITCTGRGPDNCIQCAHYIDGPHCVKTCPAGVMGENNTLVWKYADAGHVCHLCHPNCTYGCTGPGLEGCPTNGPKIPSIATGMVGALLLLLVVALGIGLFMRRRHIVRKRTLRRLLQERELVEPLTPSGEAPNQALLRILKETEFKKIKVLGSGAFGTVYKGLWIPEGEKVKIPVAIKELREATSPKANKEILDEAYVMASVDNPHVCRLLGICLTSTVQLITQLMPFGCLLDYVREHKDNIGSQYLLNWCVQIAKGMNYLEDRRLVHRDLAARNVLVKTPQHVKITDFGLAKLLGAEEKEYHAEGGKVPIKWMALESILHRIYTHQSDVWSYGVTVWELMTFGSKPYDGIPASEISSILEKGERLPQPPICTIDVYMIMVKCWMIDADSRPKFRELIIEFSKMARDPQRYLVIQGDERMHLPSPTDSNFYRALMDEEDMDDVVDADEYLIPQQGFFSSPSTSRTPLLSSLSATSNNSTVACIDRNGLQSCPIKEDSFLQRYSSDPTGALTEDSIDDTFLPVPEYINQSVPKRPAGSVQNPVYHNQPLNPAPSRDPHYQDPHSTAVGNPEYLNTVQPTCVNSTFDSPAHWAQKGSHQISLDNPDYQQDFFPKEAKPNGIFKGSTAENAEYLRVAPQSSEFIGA
ROCK1, sequence (Q13464 whole entry): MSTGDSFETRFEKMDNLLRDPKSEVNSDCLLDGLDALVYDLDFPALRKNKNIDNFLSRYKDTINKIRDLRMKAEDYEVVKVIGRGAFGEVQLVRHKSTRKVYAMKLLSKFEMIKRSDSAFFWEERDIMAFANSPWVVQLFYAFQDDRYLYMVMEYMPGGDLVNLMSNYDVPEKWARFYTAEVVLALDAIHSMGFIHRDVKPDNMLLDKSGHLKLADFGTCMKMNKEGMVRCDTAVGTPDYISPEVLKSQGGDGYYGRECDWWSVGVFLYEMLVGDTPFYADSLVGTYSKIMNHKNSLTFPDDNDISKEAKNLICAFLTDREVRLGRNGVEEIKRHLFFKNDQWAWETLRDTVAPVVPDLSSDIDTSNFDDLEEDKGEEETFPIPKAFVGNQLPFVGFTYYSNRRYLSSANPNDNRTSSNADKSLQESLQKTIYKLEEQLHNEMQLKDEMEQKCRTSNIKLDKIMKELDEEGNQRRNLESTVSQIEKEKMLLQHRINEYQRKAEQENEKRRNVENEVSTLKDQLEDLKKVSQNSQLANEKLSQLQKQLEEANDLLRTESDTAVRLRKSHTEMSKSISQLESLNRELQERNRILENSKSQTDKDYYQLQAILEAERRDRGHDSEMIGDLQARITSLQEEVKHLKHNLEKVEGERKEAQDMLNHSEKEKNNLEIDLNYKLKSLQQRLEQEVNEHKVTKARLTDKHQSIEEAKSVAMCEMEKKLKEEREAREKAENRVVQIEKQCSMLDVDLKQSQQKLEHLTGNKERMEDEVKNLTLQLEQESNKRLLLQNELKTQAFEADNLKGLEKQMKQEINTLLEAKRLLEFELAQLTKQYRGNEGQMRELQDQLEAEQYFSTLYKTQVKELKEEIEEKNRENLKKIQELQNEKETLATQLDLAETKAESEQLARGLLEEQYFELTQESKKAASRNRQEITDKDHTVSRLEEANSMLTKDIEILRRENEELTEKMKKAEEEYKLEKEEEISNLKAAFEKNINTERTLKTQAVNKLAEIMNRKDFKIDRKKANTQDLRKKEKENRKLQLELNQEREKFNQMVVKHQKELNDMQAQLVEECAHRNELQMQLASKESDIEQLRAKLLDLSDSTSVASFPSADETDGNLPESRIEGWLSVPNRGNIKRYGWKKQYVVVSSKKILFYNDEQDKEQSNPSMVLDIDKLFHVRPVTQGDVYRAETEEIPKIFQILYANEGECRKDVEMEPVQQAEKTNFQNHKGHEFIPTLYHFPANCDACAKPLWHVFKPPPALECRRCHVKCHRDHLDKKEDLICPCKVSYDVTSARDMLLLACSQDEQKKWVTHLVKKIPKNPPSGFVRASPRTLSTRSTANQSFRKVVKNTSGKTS

With `C#CCOc1ccc(Nc2ncc(Cl)c(Nc3ccccc3NC(=O)C=C)n2)c(OC)c1` [Compound 6] the Phagocytic index (WT HL-60 neutrophils) was 160.957 and 207.068 and 250.511 and 251.311 and 284.865, the “Reduction of phagocytic index” value ([1]; 100 nM, 1 h, E. coli MOI 30, 1 h) was 30–50% and the Phagocytic index ([1]; Figure 7e, S700C, replicates) was 145.478 and 171.315 and 187.921 and 222.417 and 183.286. For the same compound, the Phagocytic index ([1]; Figure 7i, replicates) was 197.442 and 178.118 and 223.309 and 208.369 and 195.015, the Phagocytic index ([1]; MOI 0, Sup. Fig. 15d) was 11.3713 and 7.7474 and 12.7423 and the Phagocytic index ([1]; MOI 5, Sup. Fig. 15d) was 256.754 and 179.658 and 258.748. For the same compound, the Phagocytic index ([1]; MOI 10, Sup. Fig. 15d) was 353.426 and 268.67 and 311.603, the Phagocytic index ([1]; MOI 30, Sup. Fig. 15d) was 419.958 and 366.26 and 418.025 and the Phagocytic index ([1]; MOI 50, Sup. Fig. 15d) was 485.281 and 414.473 and 534.485. The “GFP-positive cells (%)” value ([1]; infection time 0 min) was 18.616% and 19.116% and 23.8538%, the “Mean GFP intensity (RFU)” value ([1]; infection time 0 min) was 251.299 RFU and 272.27 RFU and 265.594 RFU and the Phagocytic index ([1]; infection time 0 min, Sup. Fig. 15c) was 46.7819 and 52.047 and 63.3542. For the same compound, the “GFP-positive cells (%)” value ([1]; infection time 15 min) was 35.6181% and 40.0295% and 44.0403%, the “Mean GFP intensity (RFU)” value ([1]; infection time 15 min) was 355.136 RFU and 341.544 RFU and 336.989 RFU and the Phagocytic index ([1]; infection time 15 min, Sup. Fig. 15c) was 126.493 and 136.719 and 148.411. The “GFP-positive cells (%)” value ([1]; infection time 30 min) was 53.551% and 63.4482% and 62.11%, the “Mean GFP intensity (RFU)” value ([1]; infection time 30 min) was 496.403 RFU and 400.363 RFU and 431.37 RFU and the Phagocytic index ([1]; infection time 30 min, Sup. Fig. 15c) was 265.829 and 254.023 and 267.924. The “GFP-positive cells (%)” value ([1]; infection time 60 min) was 64.7116% and 74.5174% and 69.3761%, the “Mean GFP intensity (RFU)” value ([1]; infection time 60 min) was 571.855 RFU and 482.086 RFU and 578.862 RFU and the Phagocytic index ([1]; infection time 60 min, Sup. Fig. 15c) was 370.057 and 359.238 and 401.592. The inhibition at 1 µM (EPHA3; [4]) was 9%, the “Inhibition at 1 µM (%)” value (EPHA3; EPHA3, 1 µM, LanthaScreen Binding, listed as WEL028, 1 µM) was 8% and the inhibition at 1 µM (EPHA3; read-out: Inhibition at 1 µM (%), EPHA3, 1 µM, LanthaScreen Binding) was 10%. The Apparent fold selectivity (TNK2 (ACK) [2]) was 76 fold, the IC50 (TNK2 (ACK) [3]) was 316 nM and the “Inhibition at 1 µM (%)” value (TNK2 (ACK) [3]; 1 µM, LanthaScreen Binding, listed as WEL028, 1 µM) was 72%. The inhibition at 1 µM (TNK2 (ACK) [3]; [4]) was 73%, the inhibition at 10 µM (TNK2 (ACK) [3]; 1 h, log[inhibitor] (M) -5.00, LanthaScreen Binding) was 46% and the inhibition at 3.311 µM (TNK2 (ACK) [3]; 1 h, log[inhibitor] (M) -5.48, LanthaScreen Binding) was 70%. For the same compound, the inhibition at 1.122 µM (TNK2 (ACK) [3]; 1 h, log[inhibitor] (M) -5.95, LanthaScreen Binding) was 77%, the inhibition at 0.3715 µM (TNK2 (ACK) [3]; 1 h, log[inhibitor] (M) -6.43, LanthaScreen Binding) was 48% and the inhibition at 0.123 µM (TNK2 (ACK) [3]; 1 h, log[inhibitor] (M) -6.91, LanthaScreen Binding) was 25%. The inhibition at 0.04074 µM (TNK2 (ACK) [3]; 1 h, log[inhibitor] (M) -7.39, LanthaScreen Binding) was 5%, the inhibition at 1 µM (TNK2 (ACK) [3]; read-out: Inhibition at 1 µM (%), 1 µM, LanthaScreen Binding) was 74% and the “CD11b-positive cells (%)” value (WT HL-60 cells; WEL028 100 nM) was 79.481% and 79.680% and 76.989%. For the same compound, the “CD11b-positive cells (%)” value (WT HL-60 cells; WEL028 1 µM) was 1.972% and 1.548% and 2.205%, the “Inhibition (%)” value (EGFR (ErbB1); 1 μM WEL028, 1 h preincubation) was 6% and the “Inhibition at 1 µM (%)” value (EGFR (ErbB1); EGFR (ErbB1), 1 µM, ZLYTE, ATP Km app, listed as WEL028, 1 µM) was 8%. For the same compound, the inhibition at 1 µM (EGFR (ErbB1); read-out: Inhibition at 1 µM (%), EGFR (ErbB1), 1 µM, ZLYTE, ATP Km app) was 4%, the inhibition at 1 µM (CSNK2A1 (CK2 alpha 1); [4]) was 4% and the “Inhibition at 1 µM (%)” value (CSNK2A1 (CK2 alpha 1); CSNK2A1 (CK2 alpha 1), 1 µM, ZLYTE, ATP Km app, listed as WEL028, 1 µM) was 9% and 0%. The inhibition at 1 µM (PI4KB (PI4K beta); [4]) was 34%, the “Inhibition at 1 µM (%)” value (PI4KB (PI4K beta); PI4KB (PI4K beta), 1 µM, Adapta, ATP Km app, listed as WEL028, 1 µM) was 37% and the inhibition at 1 µM (PI4KB (PI4K beta); read-out: Inhibition at 1 µM (%), PI4KB (PI4K beta), 1 µM, Adapta, ATP Km app) was 30%. The inhibition at 1 µM (CDK16 (PCTK1)/cyclin Y; [4]) was 0%, the “Inhibition at 1 µM (%)” value (CDK16 (PCTK1)/cyclin Y; CDK16 (PCTK1)/cyclin Y, 1 µM, LanthaScreen Binding, listed as WEL028, 1 µM) was -1% and the “Inhibition at 1 µM (%)” value (ROCK1; 1 µM, ZLYTE, ATP Km app, listed as WEL028, 1 µM) was -6% and 0%. The inhibition at 1 µM (ROCK1; [4]) was -3%.
